Source: PMC8803706, “Fibroblast activation protein targeted therapy using [^177Lu]FAPI-46 compared with [^225Ac]FAPI-46 in a pancreatic cancer model” (European Journal of Nuclear Medicine and Molecular Imaging, 2021)

Key:
[1] = tested on: PANC-1 xenograft mice; assay: [^18F]FAPI-74 PET imaging in PANC-1 xenograft mice; assay type: in vivo
Description: PET images were acquired with a small animal PET scanner (Siemens Inveon PET/CT) 3 weeks after the implantation in PANC-1 xenograft mice (9 weeks old, body weight = 25.3 ± 1.2 g, n = 9). Under 2% isoflurane anesthesia, [^18F]FAPI-74 (12.4 ± 1.7 MBq) was injected in the tail vein. Dynamic PET scans (scan duration = 70 min, n = 2) were started simultaneously with the bolus injection. Static PET scans (scan duration = 10 min, n = 7) were performed 1 h after injection, followed by a CT scan. PET data were reconstructed into 2-min frames in the dynamic PET scan (2 min × 35 frames) and one frame in the static PET scan by three-dimensional ordered-subset expectation–maximization (16 subsets, 2 iterations), with attenuation and scatter correction. Regions of interest were drawn on the muscle, heart, lungs, liver, gallbladder, kidneys, intestine, and tumour. The mean standardized uptake values (SUVmean) and maximum standardized uptake values (SUVmax) were measured using PMOD (Version 4.0).

[2] = Body weight of treated PANC-1 xenograft mice; assay type: in vivo
Description: (§1) [^177Lu]FAPI-46 and [^225Ac]FAPI-46 were injected into PANC-1 xenograft mice via the tail vein (9 weeks old, body weight = 22.7 ± 2.1 g). Mice injected with [^177Lu]FAPI-46 were divided into four groups according to the injected dose: 3 MBq (3.2 ± 0.1 MBq, n = 6), 10 MBq (10.2 ± 0.5 MBq, n = 6), 30 MBq (30.5 ± 2.7 MBq, n = 6) and control (n = 4) groups. Mice injected with [^225Ac]FAPI-46 were divided into four groups: 3 kBq (2.9 ± 0.0 kBq, n = 3), 10 kBq (8.5 ± 1.1 kBq, n = 2), 30 kBq (30.5 ± 0.7 kBq, n = 6) and control (n = 7) groups. The tumour size and body weight were measured with a caliper using the elliptical sphere model calculation, three times per week during the observation period.

[3] = tested on: PANC-1 xenograft; assay: Treatment effect on tumour size in PANC-1 xenograft mice; assay type: in vivo; details: for relative ratio of the tumour size compared to the control group: day 40
Description: Male nude mice (BALB/cSlc-nu/nu) were purchased from Japan SLC Inc. (Hamamatsu, Japan). Animals were housed under a 12-h light/12-h dark cycle and allowed free access to food and water. The mice were injected with PANC-1 cells (1 × 10^7 cells) in a mixture of phosphate-buffered saline and Matrigel (0.1 mL, 1:1; BD Biosciences, Franklin Lakes, NJ, USA). Tumour xenograft models were evaluated 3 weeks after transplantation of PANC-1 cells (tumour volume = 716 ± 304 mm^3). Euthanasia was performed in the following conditions: (1) when the animals had unbearable suffering, (2) when a significant decrease in activity or a marked decrease in food and water intake was observed, and (3) at the end of the observation period (up to 44 days for [^177Lu]FAPI-46 and 32 days for [^225Ac]FAPI-46). Euthanasia was performed by deep anesthesia using isoflurane inhalation.
as §1

[4] = tested on: PANC-1 xenograft mice; assay: Biodistribution of [^177Lu]FAPI-46 and [^225Ac]FAPI-46 in PANC-1 xenograft mice (gamma counter); assay type: in vivo; details: for organs with relatively high accumulation / residence: 24 h post-injection; for clearance from organs: between 3 and 24 h post-administration
Description: [^177Lu]FAPI-46 (3.3 ± 0.1 MBq) and [^225Ac]FAPI-46 (12.5 ± 0.7 kBq) were injected into PANC-1 xenograft mice (9 weeks old, body weight = 23.9 ± 0.9 g, n = 12). After euthanasia by deep inhalation anesthesia with isoflurane, the brain, thyroid gland, salivary glands, lungs, heart, liver, spleen, pancreas, stomach, small intestine, large intestine, kidneys, bone (femur), bladder, testis, tumour, blood, and urine were removed and weighed at 3 h and 24 h. Radioactivity was also measured using a gamma counter (2480 Wizard^2 Gamma Counter, Perkin Elmer, USA).

[5] = tested on: PANC-1 xenograft mice; assay: Histological analysis (H&E) of kidneys and tumours after treatment; assay type: in vivo
Description: All mice were killed after [^18F]FAPI-74 PET imaging, and tumour xenografts were removed. Immunohistochemical staining was performed using anti-FAP alpha antibody (ab53066; Abcam, Cambridge, UK), and the Dako EnVision + System—HRP Labelled Polymer Anti-Rabbit (K4003) (DAKO Corp., Glostrup, Denmark). To evaluate toxicity, the kidneys were removed after the mice treated with [^177Lu]FAPI-46 and [^225Ac]FAPI-46 were sacrificed. The tissues were fixed in 10% neutral buffered formalin solution for paraffin blocks and stained with hematoxylin and eosin (H&E). Tumour blocks in all mice were also stained with H&E.

[6] = tested on: PANC-1 xenograft mice; details: data not shown
[7] = static PET scan 1 h after i.v. injection

## N#C[C@@H]1CCCN1C(=O)CNC(=O)c1ccnc2ccc(OCCCN3CCN(C(=O)CN4CCN(CC(=O)[O-])CCN(CC(=O)[O-])CC4)CC3)cc12.[18F][Al+2] [[^18F]FAPI-74]
[1]; [7]
  SUVmean in the gallbladder: 0.66 ± 0.15
  SUVmean in the heart: 0.08 ± 0.01
  SUVmean in the intestine: 0.61 ± 0.48
  SUVmean in the kidneys: 0.39 ± 0.07
  SUVmean in the liver: 0.14 ± 0.02
  SUVmean in the muscle: 0.05 ± 0.01
  SUVmean in the tumour: 0.24 ± 0.04
[1]; time-activity curve
  clearance and tumour washout on dynamic PET: cleared rapidly by the kidneys but washout from the tumour occurred slowly

## CN(CCCN1CCN(C(=O)CN2CCN(CC(=O)[O-])CCN(CC(=O)[O-])CCN(CC(=O)[O-])CC2)CC1)c1ccc2nccc(C(=O)NCC(=O)N3CC(F)(F)C[C@H]3C#N)c2c1.[177Lu+3] [[^177Lu]FAPI-46]
[2]; 10 MBq and 30 MBq groups
  body weight compared to the controls: slight decrease without statistical significance
[3]; 3, 10, 30 MBq, multiple comparisons across the doses
  tumour growth after administration: inhibitory trend after administration, although the changes were not statistically significant
[3]; 3 MBq and 10 MBq groups
  therapeutic effects (time course): slower and were seen until day 12
[3]; 3 MBq group
  relative ratio of the tumour size compared to the control group: 0.62
[3]; 10 MBq group
  relative ratio of the tumour size compared to the control group: 0.56
[3]; 30 MBq group
  time after administration at which tumour-suppressive effects were observed: 9 days
  relative ratio of the tumour size compared to the control group: 0.27
[4]; 3 h post-administration, PANC-1 xenograft mice
  %ID/g of the urine: 21.2 ± 15.3 %ID/g
[4]
  organs with relatively high accumulation / residence: relatively high tracer accumulation was seen in the tumour, large intestine, and bone
  clearance from organs: Most organs showed fast clearance
[4]; PANC-1 xenograft mice
  uptake in the liver: low
[5]; day 44 after administration
  histological changes in the kidneys (H&E): No histological changes
  histological changes in the tumour (H&E) compared to controls: No significant difference

## [177Lu+3].[Cl-].[Cl-].[Cl-] [[^177Lu]LuCl3, Lutetium-177 chloride]
[6]
  lethal dose: 30 MBq

## CN(CCCN1CCN(C(=O)CN2CCN(CC(=O)[O-])CCN(CC(=O)[O-])CCN(CC(=O)[O-])CC2)CC1)c1ccc2nccc(C(=O)NCC(=O)N3CC(F)(F)C[C@H]3C#N)c2c1.[225Ac+3] [[^225Ac]FAPI-46]
[2]; 3 kBq and 10 kBq groups
  body weight recovery: recovery after day 7
[2]; all groups (3, 10, 30 kBq)
  body weight: decreasing trend in the first week
[3]; 3 kBq group
  tumour-suppressive effects: very mild
[3]; 10 kBq and 30 kBq groups
  tumour growth after treatment: suppressed immediately after treatment
[3]; 30 kBq group
  tumour size vs control group: significantly smaller than those in the control group on days 5–9 and day 25
[3]; high dose
  day at which tumour regrowth began: 12 days
[4]
  organs with relatively high accumulation / residence: relatively higher residence time in the tumour, spleen, liver, stomach, small intestine, and large intestine
  clearance from organs: Most organs showed fast clearance
[4]; PANC-1 xenograft mice
  uptake in the liver: high accumulation in the liver
[5]; day 32 after administration
  histological changes in the kidneys (H&E): No histological changes
